Reference: PubChem BioAssay AID1963972 (Molecular Pharmacology Branch, DTP, NCI, 2024)
pIC50: −log10 of the molar value.

Test system: 945468-187-T-J2-PDC spheroids viability
Experiment: Anticancer human tumor 945468-187-T-J2-PDC patient-derived rectal carcinoma cell line growth inhibition [PI3K]
Conditions: spheroids with HUVEC and MSC; for pIC50: curve of first compound; for viability, T/C: stronger effect = lower value
Outline: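 Viability of mixed-cell spheroids was determined after exposure to pairwise combinations, one partner being inavolisib, alpelisib, duvelisib or copanlisib. Highest tested concentration matched clinical Cmax where known and 10 microM where not, descending in half-log steps.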

[1] = second compound 0.0316 µM, first compound 0.0316 µM
[2] = second compound 0.0316 µM, first compound 0.1 µM
[3] = second compound 0.0316 µM, first compound 0.316 µM
[4] = second compound 0.0316 µM, first compound 1 µM
[5] = second compound 0.0316 µM, first compound 3.16 µM
[6] = second compound 0.0316 µM, first compound 10 µM
[7] = second compound 0.1 µM, first compound 0.0316 µM
[8] = second compound 0.1 µM, first compound 0.1 µM
[9] = second compound 0.1 µM, first compound 0.316 µM
[10] = second compound 0.1 µM, first compound 1 µM
[11] = second compound 0.1 µM, first compound 3.16 µM
[12] = second compound 0.1 µM, first compound 10 µM
[13] = second compound 0.316 µM, first compound 0.0316 µM
[14] = second compound 0.316 µM, first compound 0.1 µM
[15] = second compound 0.316 µM, first compound 0.316 µM
[16] = second compound 0.316 µM, first compound 1 µM
[17] = second compound 0.316 µM, first compound 3.16 µM
[18] = second compound 0.316 µM, first compound 10 µM
[19] = second compound 1 µM, first compound 0.0316 µM
[20] = second compound 1 µM, first compound 0.1 µM
[21] = second compound 1 µM, first compound 0.316 µM
[22] = second compound 1 µM, first compound 1 µM
[23] = second compound 1 µM, first compound 3.16 µM
[24] = second compound 1 µM, first compound 10 µM
[25] = second compound 3.16 µM, first compound 0.0316 µM
[26] = second compound 3.16 µM, first compound 0.1 µM
[27] = second compound 3.16 µM, first compound 0.316 µM
[28] = second compound 3.16 µM, first compound 1 µM
[29] = second compound 3.16 µM, first compound 3.16 µM
[30] = second compound 3.16 µM, first compound 10 µM
[31] = second compound 10 µM, first compound 0.0316 µM
[32] = second compound 10 µM, first compound 0.1 µM
[33] = second compound 10 µM, first compound 0.316 µM
[34] = second compound 10 µM, first compound 1 µM
[35] = second compound 10 µM, first compound 3.16 µM
[36] = second compound 10 µM, first compound 10 µM
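Also: spheroids exposed to compounds for seven days before reading.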

C#Cc1c(F)ccc2cc(O)cc(-c3ncc4c(N5CC6CCC(C5)N6)nc(OCC56CCCN5CC(F)C6)nc4c3F)c12 (stereo not given) + CC(Nc1ncnc2nc[nH]c12)c1cc2cccc(Cl)c2c(=O)n1-c1ccccc1
pIC50 (second compound 0.0316 µM): < 5.00 | pIC50 (second compound 0.1 µM): < 5.00 | pIC50 (second compound 0.316 µM): < 5.00 | pIC50 (second compound 1 µM): < 5.00 | pIC50 (second compound 3.16 µM): < 5.00 | pIC50 (second compound 10 µM): < 5.00 | viability, T/C [1]: 101% | viability, T/C [2]: 99.8% | viability, T/C [3]: 95.8% | viability, T/C [4]: 86.4% | viability, T/C [5]: 102% | viability, T/C [6]: 117% | viability, T/C [7]: 111% | viability, T/C [8]: 110% | viability, T/C [9]: 103% | viability, T/C [10]: 134% | viability, T/C [11]: 107% | viability, T/C [12]: 106% | viability, T/C [13]: 100% | viability, T/C [14]: 116% | viability, T/C [15]: 87.1% | viability, T/C [16]: 95.3% | viability, T/C [17]: 116% | viability, T/C [18]: 111% | viability, T/C [19]: 96.3% | viability, T/C [20]: 104% | viability, T/C [21]: 113% | viability, T/C [22]: 106% | viability, T/C [23]: 96.2% | viability, T/C [24]: 114% | viability, T/C [25]: 91% | viability, T/C [26]: 98.6% | viability, T/C [27]: 107% | viability, T/C [28]: 125% | viability, T/C [29]: 114% | viability, T/C [30]: 105% | viability, T/C [31]: 114% | viability, T/C [32]: 140% | viability, T/C [33]: 149% | viability, T/C [34]: 99.7% | viability, T/C [35]: 116% | viability, T/C [36]: 112%

C=CC(=O)N1CCN(c2nc(=O)n(-c3c(C)ccnc3C(C)C)c3nc(-c4c(O)cccc4F)c(F)cc23)C(C)C1 (stereo not given) + CC(Nc1ncnc2nc[nH]c12)c1cc2cccc(Cl)c2c(=O)n1-c1ccccc1
pIC50 (second compound 0.0316 µM): < 5.00 | pIC50 (second compound 0.1 µM): < 5.00 | pIC50 (second compound 0.316 µM): < 5.00 | pIC50 (second compound 1 µM): < 5.00 | pIC50 (second compound 3.16 µM): < 5.00 | pIC50 (second compound 10 µM): < 5.00 | viability, T/C [1]: 103% | viability, T/C [2]: 124% | viability, T/C [3]: 100% | viability, T/C [4]: 114% | viability, T/C [5]: 111% | viability, T/C [6]: 95.8% | viability, T/C [7]: 97.5% | viability, T/C [8]: 82.7% | viability, T/C [9]: 91.5% | viability, T/C [10]: 85.2% | viability, T/C [11]: 93% | viability, T/C [12]: 136% | viability, T/C [13]: 109% | viability, T/C [14]: 114% | viability, T/C [15]: 96.3% | viability, T/C [16]: 105% | viability, T/C [17]: 106% | viability, T/C [18]: 84.7% | viability, T/C [19]: 87.6% | viability, T/C [20]: 98.8% | viability, T/C [21]: 113% | viability, T/C [22]: 104% | viability, T/C [23]: 107% | viability, T/C [24]: 89.3% | viability, T/C [25]: 94.6% | viability, T/C [26]: 106% | viability, T/C [27]: 104% | viability, T/C [28]: 97.8% | viability, T/C [29]: 99.6% | viability, T/C [30]: 104% | viability, T/C [31]: 124% | viability, T/C [32]: 122% | viability, T/C [33]: 116% | viability, T/C [34]: 123% | viability, T/C [35]: 92.4% | viability, T/C [36]: 90.4%

CC(Cn1ccc(-c2ccc(C#N)c(Cl)c2)n1)NC(=O)c1cc(C(C)O)[nH]n1 (stereo not given) + CC(Nc1ncnc2nc[nH]c12)c1cc2cccc(Cl)c2c(=O)n1-c1ccccc1
pIC50 (second compound 0.0316 µM): < 5.00 | pIC50 (second compound 0.1 µM): < 5.00 | pIC50 (second compound 0.316 µM): < 5.00 | pIC50 (second compound 1 µM): < 5.00 | pIC50 (second compound 3.16 µM): < 5.00 | pIC50 (second compound 10 µM): < 5.00 | viability, T/C [1]: 99.9% | viability, T/C [2]: 75.6% | viability, T/C [3]: 108% | viability, T/C [4]: 104% | viability, T/C [5]: 99.9% | viability, T/C [6]: 89.3% | viability, T/C [7]: 128% | viability, T/C [8]: 105% | viability, T/C [9]: 106% | viability, T/C [10]: 95.3% | viability, T/C [11]: 117% | viability, T/C [12]: 127% | viability, T/C [13]: 111% | viability, T/C [14]: 86.3% | viability, T/C [15]: 87% | viability, T/C [16]: 89.3% | viability, T/C [17]: 91% | viability, T/C [18]: 91.6% | viability, T/C [19]: 87.2% | viability, T/C [20]: 97.8% | viability, T/C [21]: 78.4% | viability, T/C [22]: 88.9% | viability, T/C [23]: 82.6% | viability, T/C [24]: 106% | viability, T/C [25]: 92.7% | viability, T/C [26]: 94.1% | viability, T/C [27]: 103% | viability, T/C [28]: 89.6% | viability, T/C [29]: 92.3% | viability, T/C [30]: 85.3% | viability, T/C [31]: 113% | viability, T/C [32]: 104% | viability, T/C [33]: 88.7% | viability, T/C [34]: 111% | viability, T/C [35]: 109% | viability, T/C [36]: 108%

Cn1ncc(Cl)c1-c1cc(C(=O)NC(CN)Cc2cccc(F)c2)sc1Cl (stereo not given) + CC(Nc1ncnc2nc[nH]c12)c1cc2cccc(Cl)c2c(=O)n1-c1ccccc1
pIC50 (second compound 0.0316 µM): < 5.00 | pIC50 (second compound 0.1 µM): < 5.00 | pIC50 (second compound 0.316 µM): < 5.00 | pIC50 (second compound 1 µM): < 5.00 | pIC50 (second compound 3.16 µM): < 5.00 | pIC50 (second compound 10 µM): < 5.00 | viability, T/C [1]: 97.5% | viability, T/C [2]: 89.3% | viability, T/C [3]: 96.3% | viability, T/C [4]: 91.5% | viability, T/C [5]: 83.9% | viability, T/C [6]: 59.2% | viability, T/C [7]: 91.1% | viability, T/C [8]: 93.3% | viability, T/C [9]: 129% | viability, T/C [10]: 91.7% | viability, T/C [11]: 93.2% | viability, T/C [12]: 59.8% | viability, T/C [13]: 90.6% | viability, T/C [14]: 122% | viability, T/C [15]: 104% | viability, T/C [16]: 105% | viability, T/C [17]: 84.2% | viability, T/C [18]: 65.5% | viability, T/C [19]: 99% | viability, T/C [20]: 115% | viability, T/C [21]: 106% | viability, T/C [22]: 98.1% | viability, T/C [23]: 77.8% | viability, T/C [24]: 73.3% | viability, T/C [25]: 83.3% | viability, T/C [26]: 103% | viability, T/C [27]: 92.5% | viability, T/C [28]: 71% | viability, T/C [29]: 81.8% | viability, T/C [30]: 61% | viability, T/C [31]: 99.6% | viability, T/C [32]: 99.6% | viability, T/C [33]: 90.6% | viability, T/C [34]: 94.2% | viability, T/C [35]: 74.4% | viability, T/C [36]: 70.1%

Cn1nccc1Nc1nccc(-c2ccn(C(CO)c3ccc(Cl)c(F)c3)c(=O)c2)n1 (stereo not given) + CC(Nc1ncnc2nc[nH]c12)c1cc2cccc(Cl)c2c(=O)n1-c1ccccc1
pIC50 (second compound 0.0316 µM): < 5.00 | pIC50 (second compound 0.1 µM): < 5.00 | pIC50 (second compound 0.316 µM): < 5.00 | pIC50 (second compound 1 µM): < 5.00 | pIC50 (second compound 3.16 µM): < 5.00 | pIC50 (second compound 10 µM): < 5.00 | viability, T/C [1]: 107% | viability, T/C [2]: 91.4% | viability, T/C [3]: 92% | viability, T/C [4]: 115% | viability, T/C [5]: 101% | viability, T/C [6]: 78.5% | viability, T/C [7]: 76.1% | viability, T/C [8]: 86.5% | viability, T/C [9]: 102% | viability, T/C [10]: 120% | viability, T/C [11]: 101% | viability, T/C [12]: 72.7% | viability, T/C [13]: 95.2% | viability, T/C [14]: 85.6% | viability, T/C [15]: 83.1% | viability, T/C [16]: 98.7% | viability, T/C [17]: 84.2% | viability, T/C [18]: 71.1% | viability, T/C [19]: 99.3% | viability, T/C [20]: 100% | viability, T/C [21]: 89.4% | viability, T/C [22]: 103% | viability, T/C [23]: 96.2% | viability, T/C [24]: 75.7% | viability, T/C [25]: 88.2% | viability, T/C [26]: 80.8% | viability, T/C [27]: 83.6% | viability, T/C [28]: 125% | viability, T/C [29]: 140% | viability, T/C [30]: 68.4% | viability, T/C [31]: 135% | viability, T/C [32]: 115% | viability, T/C [33]: 109% | viability, T/C [34]: 110% | viability, T/C [35]: 91.9% | viability, T/C [36]: 70.5%
